Test results published in US7786141B2 (Vertex Pharmaceuticals Incorporated, priority 2004, dated 2010).

Assays:
M4 muscarinic receptor = biological target: T1, M4 muscarinic receptor (Homo sapiens, UniProt P08173); assay: Functional mobilization of intracellular calcium (FLIPR) in M4-CHO cells; assay type: cell-based; settings: M4 receptor, calcium mobilization; for Emax: read-out: M4 Efficacy
T1 construct: expressed in transfected cells; host or cells: CHO (M4-CHO)
T1 sequence (P08173 1-479): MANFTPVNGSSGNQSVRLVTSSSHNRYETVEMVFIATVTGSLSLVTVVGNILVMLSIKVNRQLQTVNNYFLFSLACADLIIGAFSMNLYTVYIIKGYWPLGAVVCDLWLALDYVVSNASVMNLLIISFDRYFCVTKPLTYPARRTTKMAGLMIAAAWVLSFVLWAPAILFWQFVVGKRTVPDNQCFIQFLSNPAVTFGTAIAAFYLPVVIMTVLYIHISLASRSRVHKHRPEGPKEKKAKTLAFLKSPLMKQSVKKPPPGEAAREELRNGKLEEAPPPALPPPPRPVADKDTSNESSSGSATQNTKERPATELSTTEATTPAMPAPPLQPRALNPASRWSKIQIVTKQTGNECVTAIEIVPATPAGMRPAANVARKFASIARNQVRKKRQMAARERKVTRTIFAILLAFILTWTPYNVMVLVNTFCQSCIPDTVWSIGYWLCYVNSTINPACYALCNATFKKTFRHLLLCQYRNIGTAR
Procedure: (§1) Functional Mobilization of Intracellular Calcium to Determine Muscarinic Receptor Activity:
(§2) CHO cells expressing muscarinic receptors (M1 to M5) are grown as monolayers in tissue culture flasks at 37° C. in a humidified atmosphere containing 5% CO2 and passaged every 3-5 days. The growth media is Dulbecco's modified eagles medium (DMEM, Gibco Cat# 12430-054), containing 25 mM Hepes and supplemented with Fetal Bovine Serum (Hyclone, cat# SH30071.03), 0.1 mM of MEM non-essential amino acids (GIBCO, Cat# 11140-050), 1 mM MEM Sodium Pyruvate (GIBCO Cat# 11360-070) and 100 units/ml of Penicillin G and 100 μg/ml of Streptomycin (GIBCO Cat# 15140-122). The recombinant muscarinic receptor cell lines are grown under antibiotic pressure with media containing 25 μg/ml zeocin and 500 μg/ml G418 (M1-CHO), 4 μg/ml puromycin, 50 μg/ml zeocin and 2.5 μg/ml blasticidin (M2 and M4-CHO) or 50 μg/ml zeocin and 4 μg/ml puromycin (M3 and M5-CHO).
(§3) Cells are harvested at 80-90% confluence using Versene (GIBCO Cat# 15040-066), collected by centrifugation and seeded 18-24 hrs prior to running the calcium assay at a density of 5,000 cells/well in back-walled, clear-bottomed 384-well plates (BD Biocoat, poly-D-lysine, Cat#356663). The day of the experiment, the cells are washed with a plate washer (Bioteck Instruments, ELX 405) using bath 1 buffer (140-mM NaCl, 4.5-mM KCl, 2-mM CaCl2, 1-mM MgCl2, 10-mM Hepes-Na, 10-mM Glucose, pH 7.4, with NaOH) containing 1 mM Probenecid. Next, the calcium dye Fluo-3 (25 μl/well of Fluo-3 AM at 4 μM, Molecular Probes F-1241, in Bath 1 buffer containing 1 mM Probenecid) is added to the 25 μl of Bath 1 remaining in each well after the plate wash and the dye is loaded at 37° C. in the tissue culture incubator for 60-90 min. The fluorescent dye is removed using the plate washer with Bath 1 containing 1 mM Probenecid, leaving 25 μl/well of this solution after the wash. Alternatively, cells can be loaded with the calcium indicator from Molecular Devices (Calcium 3 Assay Reagents, Cat # R7181) adding 5 μl of a 5× solution dye in Bath 1 containing 1 mM Probenecid (10 ml per dye flask cat# R7182 to generate a solution 20×) to 20 μl of the same buffer. After loading for 60 min, the experiment can be run without having to remove the dye.
(§4) Compounds are prepared at a 2× fold concentration in a 96-well plate (round bottom, Costar Corning cat# 3656), by reconstituting the pre-spotted compounds in bath 1 containing 1 mM probenecid. The final concentration DMSO is 0.5%, and the amount of DMSO is normalized across the assay plate. To determine an agonist action of the compounds on muscarinic receptors, the reconstituted compounds are added (25 μl compound/well) to the cell assay plate (containing 25 μl/well) using the multi-channel robotic system of the FLIPR 3 Instrument (Molecular Devices, Sunnyvale, Calif.). To determine a functional inhibitory action of the compounds on muscarinic receptors, the reconstituted compounds are added (25 μl compound/well) to the assay plate and pre-incubated for 15 min prior to adding 25 μl of Carbachol at 3× the EC80 for each muscarinic subtype. Alternatively, the compounds can be co-applied simultaneously with the agonist. In both assay modes, the fluorescence is recorded for 60 sec (excitation wavelength is […] and emission wavelength 540 nm) using the FLIPR 3 instrument.
(§5) The potency, efficacy and selectivity of the muscarinic compounds were evaluated by screening the compound activity across the whole family (M1 to M5 cells). Compounds were also screened for activity on other proteins such as other GPCRs and ion channels to determine selectivity on M4 receptors.

M1 muscarinic receptor = biological target: T2, M1 muscarinic receptor (Homo sapiens, UniProt P11229); assay: Functional mobilization of intracellular calcium (FLIPR) in M1-CHO cells; assay type: cell-based; settings: M1 receptor, calcium mobilization; for Emax: read-out: M1 Efficacy
T2 construct: expressed in transfected cells; host or cells: CHO (M1-CHO)
T2 sequence (P11229 1-460): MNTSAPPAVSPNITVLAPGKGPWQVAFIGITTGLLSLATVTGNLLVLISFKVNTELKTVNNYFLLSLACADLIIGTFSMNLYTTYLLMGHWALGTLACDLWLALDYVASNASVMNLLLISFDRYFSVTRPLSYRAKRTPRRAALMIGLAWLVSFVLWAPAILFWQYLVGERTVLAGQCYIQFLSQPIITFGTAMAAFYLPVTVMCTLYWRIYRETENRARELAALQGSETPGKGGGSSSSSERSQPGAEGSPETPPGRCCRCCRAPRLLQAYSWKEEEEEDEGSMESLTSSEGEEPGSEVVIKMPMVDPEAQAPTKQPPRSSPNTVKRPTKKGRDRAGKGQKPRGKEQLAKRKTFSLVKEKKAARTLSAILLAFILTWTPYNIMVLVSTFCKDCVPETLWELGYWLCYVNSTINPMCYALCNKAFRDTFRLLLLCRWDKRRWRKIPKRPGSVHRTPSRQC
Procedure: as §1, §2, §3, §4, §5

Structure (SMILES) | M4 Activity (M4 muscarinic receptor) | Emax (M4 muscarinic receptor) [%] | M1 Activity (M1 muscarinic receptor) | Emax (M1 muscarinic receptor) [%]
Clc1ccc2c(c1)C1(CCN([C@H]3C[C@@H]4CC[C@@H]3C4)CC1)CO2 [compound 1] | xx (activity was measured to be between 0.1 μM and 1.0 μM) | > 85 | xx (activity was measured to be between 0.1 μM and 1.0 μM) | 65 to 85
CC(=O)NC1CC2(CCN(C3CCCCC3)CC2)c2ccccc21 (centres unmarked) [compound 2] | x (activity was measured to be greater than 1.0 μM) | < 65 | x (activity was measured to be greater than 1.0 μM) | < 65
Cc1ccc2c(c1)C1(CCN(CC3CC4C=CC3C4)CC1)CN2 (centres unmarked) [compound 3] | xx (activity was measured to be between 0.1 μM and 1.0 μM) | 65 to 85 | xxx (activity was measured to be less than 0.1 μM) | 65 to 85
CC(=O)N[C@H]1CC2(CCN(C3C4CC5CC(C4)CC3C5)CC2)c2ccccc21 (some centres unmarked) [compound 4] | x (activity was measured to be greater than 1.0 μM) | < 65 | xxx (activity was measured to be less than 0.1 μM) | < 65
Clc1ccc2c(c1)C1(CCN(C3CCCCC3)CC1)CO2 [compound 5] | xxx (activity was measured to be less than 0.1 μM) | > 85 | xxx (activity was measured to be less than 0.1 μM) | 65 to 85
CCOC(=O)N1CCC(N2CCC3(CC2)CN(C(C)=O)c2ccc(-c4cccc(C)c4)cc23)CC1 [compound 6] | xx (activity was measured to be between 0.1 μM and 1.0 μM) | 65 to 85 | xxx (activity was measured to be less than 0.1 μM) | 65 to 85
O=C1Nc2ccccc2C12CCN(CC1CC3C=CC1C3)CC2 (centres unmarked) [compound 7] | xx (activity was measured to be between 0.1 μM and 1.0 μM) | > 85 | xxx (activity was measured to be less than 0.1 μM) | 65 to 85
CC(=O)NC1CC2(CCN(C3CC4CCC(C4)C3)CC2)c2ccccc21 (centres unmarked) [compound 8] | xx (activity was measured to be between 0.1 μM and 1.0 μM) | 65 to 85 | xx (activity was measured to be between 0.1 μM and 1.0 μM) | < 65
CCOC(=O)N1C2CCC1CC(N1CCC3(CC1)CN(C(C)=O)c1ccc(C)cc13)C2 (centres unmarked) [compound 9] | x (activity was measured to be greater than 1.0 μM) | 65 to 85 | xxx (activity was measured to be less than 0.1 μM) | 65 to 85
CCOC(=O)N1CCC(N2CCC3(CC2)CN(C(C)=O)c2ccc(-c4ccc(NC(C)=O)cc4)cc23)CC1 [compound 10] | xx (activity was measured to be between 0.1 μM and 1.0 μM) | 65 to 85 | xx (activity was measured to be between 0.1 μM and 1.0 μM) | 65 to 85
C=Cc1ccc2c(c1)C1(CCN(C3CCN(C(=O)OCC)CC3)CC1)CN2C(C)=O [compound 11] | x (activity was measured to be greater than 1.0 μM) | < 65 | x (activity was measured to be greater than 1.0 μM) | < 65
CCC(=O)CCN1CC2(CCN(C[C@@H]3C[C@H]4C=C[C@H]3C4)CC2)c2cc(F)ccc21 [compound 12] | xx (activity was measured to be between 0.1 μM and 1.0 μM) | < 65 | xxx (activity was measured to be less than 0.1 μM) | < 65
Fc1ccc2c(c1)C1(CCN(CC3CCC4CCC3C4)CC1)CN2 (centres unmarked) [compound 13] | x (activity was measured to be greater than 1.0 μM) | < 65 | xx (activity was measured to be between 0.1 μM and 1.0 μM) | 65 to 85
CC(=O)N1CC2(CCN(CC3CCN(C(=O)O[C@@H]4CCOC4)CC3)CC2)c2cc(F)ccc21 [compound 14] | xxx (activity was measured to be less than 0.1 μM) | > 85 | xxx (activity was measured to be less than 0.1 μM) | 65 to 85
CCCC1CCC(N2CCC3(CC2)C[C@H](NC(C)=O)c2ccccc23)CC1 (some centres unmarked) [compound 15] | xx (activity was measured to be between 0.1 μM and 1.0 μM) | > 85 | xxx (activity was measured to be less than 0.1 μM) | 65 to 85
CS(=O)(=O)N1CC2(CCN(C3CC4CCC(C3)N4C(=O)O[C@@H]3CCOC3)CC2)c2cc(F)ccc21 (some centres unmarked) [compound 16] | xxx (activity was measured to be less than 0.1 μM) | 65 to 85 | xxx (activity was measured to be less than 0.1 μM) | 65 to 85
CCOC(=O)N1CCC(N2CCC3(CC2)CN(C(=O)C2CCCC2)c2ccc(F)cc23)CC1 [compound 17] | xx (activity was measured to be between 0.1 μM and 1.0 μM) | 65 to 85 | xx (activity was measured to be between 0.1 μM and 1.0 μM) | < 65
c1ccc2c(c1)CCC21CCN(CC2CCOCC2)CC1 [compound 18] | xx (activity was measured to be between 0.1 μM and 1.0 μM) | > 85 | xxx (activity was measured to be less than 0.1 μM) | < 65
CCOC(=O)N1CCC(N2CCC3(CC2)CNc2ccc(Cl)cc23)CC1 [compound 19] | xx (activity was measured to be between 0.1 μM and 1.0 μM) | 65 to 85 | xxx (activity was measured to be less than 0.1 μM) | 65 to 85
CC1(C)C(=O)c2ccccc2C12CCN(C[C@H]1C[C@@H]3C=C[C@@H]1C3)CC2 [compound 20] | xx (activity was measured to be between 0.1 μM and 1.0 μM) | < 65 | x (activity was measured to be greater than 1.0 μM) | < 65
